Values of other authors in US9822391B2, “Methods for monitoring methotrexate therapy” (priority 2010, dated 2017).

Legend:
[1] = approximately 5-10% of individuals who do not metabolize MTX effectively; within the first few hours following once weekly administration; Chladek et al., 1998
AICAR transformylase = AICAR transformylase (Homo sapiens, UniProt P31939); details: relative to MTX; Allegra et al., 1987
Chain of AICAR transformylase (P31939 whole entry, species assumed): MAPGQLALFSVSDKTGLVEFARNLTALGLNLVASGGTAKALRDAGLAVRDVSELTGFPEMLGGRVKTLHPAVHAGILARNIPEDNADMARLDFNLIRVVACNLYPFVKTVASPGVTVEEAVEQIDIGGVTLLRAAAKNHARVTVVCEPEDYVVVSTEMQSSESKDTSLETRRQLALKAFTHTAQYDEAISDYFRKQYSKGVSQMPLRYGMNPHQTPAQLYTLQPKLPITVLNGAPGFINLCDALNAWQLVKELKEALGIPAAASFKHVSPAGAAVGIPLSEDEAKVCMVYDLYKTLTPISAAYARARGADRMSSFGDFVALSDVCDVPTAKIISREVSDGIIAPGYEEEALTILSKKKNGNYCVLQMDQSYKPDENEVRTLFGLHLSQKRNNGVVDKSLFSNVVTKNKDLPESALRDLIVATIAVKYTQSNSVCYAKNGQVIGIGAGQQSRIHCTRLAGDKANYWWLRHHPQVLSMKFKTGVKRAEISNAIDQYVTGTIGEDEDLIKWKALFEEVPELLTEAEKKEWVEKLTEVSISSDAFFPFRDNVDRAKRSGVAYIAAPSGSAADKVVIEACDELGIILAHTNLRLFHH

Row | SMILES | excretion of the drug in urine [1] | fold more potent than MTX itself against AICAR transformylase (AICAR transformylase) [fold]
1 | CN(Cc1cnc2nc(N)nc(N)c2n1)c1ccc(C(=O)N[C@@H](CCC(=O)O)C(=O)O)cc1 [MTX, Methotrexate] | virtually the totality of the drug excreted unchanged in the urine | 
2 | CN(Cc1cnc2nc(N)nc(N)c2n1)c1ccc(C(=O)NC(CCC(=O)NC(CCC(=O)NC(CCC(=O)NC(CCC(=O)NC(CCC(=O)O)C(=O)O)C(=O)O)C(=O)O)C(=O)O)C(=O)O)cc1 (centres unmarked) [pentaglutamylated form of MTX] |  | 2500
